Source: US20240391902A1, “Crystalline Form of Compound” (Shenzhen Forward Pharmaceuticals Co., Limited, priority 2020, published 2024)
“Also recorded” adds a separate entry of the source.

Columns and labels:
Type in all cases: physicochemical
[1] = Solid storage stability test; conditions: for chemical and physical stability after storage: solid/25° C./60% RH/open/1 week and/or solid/60° C./closed container/1 week
Protocol: Each amorphous salt solid was weighed (two 2 mg samples were weighed for purity testing after solid storage stability study, and one 10 mg sample was weighed for XRPD testing after solid storage stability study) and placed in a glass vial. In a 25° C./60% RH solid storage stability test, the amorphous salt solid was placed in a 25° C./60% RH constant temperature and humidity chamber, and placed in the dark for 1 week (i.e. “solid/25° C./60% RH/open/1 week”), and in a 60° C. solid storage stability test, the amorphous salt solid was sealed in an oven at 60° C. and heated for 1 week in the dark (i.e. “solid/60° C./closed container/1 week”). Then the sample was taken out for purity testing, crystal form detection and appearance observation, respectively.

[2] = Solid solubility test (2 h and 24 h); conditions: for Solubility measured at 2 h: 37° C., based on free base
Protocol: 5 samples were weighed for each amorphous salt solid (equivalent to 20 mg of free base), and 10 mL of the following solvents were respectively added: 0.1N HCl solution (pH 1.0), 50 mM phosphate buffer (pH 4.5), FeSSIF-V1 (pH 5.0), FaSSIF-V1 (pH 6.5) and SGF (pH 2.0), and stirred at 37° C. for 2 h. The suspension was then centrifuged at 37° C., the supernatant was measured for solubility by HPLC, and the solid fraction was measured for XRPD. The target solubility was at least 2 mg (based on free base)/mL.

Dynamic solubility test = conditions: for dynamic solubility: room temperature, feeding concentration 10 mg/mL
Protocol: Determination method: According to a feeding concentration of 10 mg/mL, about 50 mg of the sample were weighed and added to 5 mL of the corresponding medium, and the sample was dissolved by rotating at […] at room temperature.

[3] = Test BS1: solid/25° C./60% RH/open/1 week
[4] = Test BS2: solid/60° C./closed container/1 week

## C=CC(=O)Nc1cc(Nc2ncnc(-c3cn(C)c4ccccc34)n2)c(OC)cc1N(C)CCN(C)C [Example 8]
[1]; [3]
  Color: no color change
[1]; [4]
  Color: no color change
  Morphology (XRPD crystallinity): amorphous (FIG. 100),
  Morphology (agglomeration, appearance): no agglomeration
[1]; listed as 1 eq. esylate salt
  chemical and physical stability after storage: physically unstable
[1]; listed as amorphous 1 eq. esylate salt
  chemical and physical stability after storage: physically unstable
[1]; solid/25° C./60% RH/open/1 week, listed as amorphous 1 eq. esylate salt
  physical and chemical stability (in words): significant hygroscopicity (caking and fusion to a glassy state)
[1]; solid/60° C./closed container/1 week, listed as amorphous 1 eq. esylate salt
  physical and chemical stability (in words): good physical and chemical stability
[2]; Test ES4: FaSSIF-V1 (pH 6.5)
  pH measured at 2 h: (6.4)
  Solubility measured at 2 h: >2 mg/mL

## C=CC(=O)Nc1cc(Nc2ncnc(-c3cn(C)c4ccccc34)n2)c(OC)cc1N(C)CCN(C)C [Example 6]
[1]; [3]
  Morphology (XRPD crystallinity): amorphous (FIG. 96),
[1]; [4]
  Morphology (XRPD crystallinity): amorphous (FIG. 96),
[1]; listed as 1 eq. besylate salt
  chemical and physical stability after storage: chemically unstable
[1]; listed as amorphous 1 eq. besylate salt
  chemical and physical stability after storage: chemically unstable
[1]; solid/60° C./closed container/1 week, listed as amorphous 1 eq. besylate salt
  physical and chemical stability (in words): good physical and chemical stability

## C=CC(=O)Nc1cc(Nc2ncnc(-c3cn(C)c4ccccc34)n2)c(OC)cc1N(C)CCN(C)C [Example 5]
[1]; [3]
  Morphology (XRPD crystallinity): low crystallinity (FIG.
  Morphology (agglomeration, appearance): 94), agglomeration
[1]; [4]
  Morphology (XRPD crystallinity): amorphous (FIG. 94),
  Morphology (agglomeration, appearance): partial agglomeration
[1]; listed as 2 eq. mesylate salt
  chemical and physical stability after storage: physically unstable
[1]; listed as amorphous 2 eq. mesylate salt
  chemical and physical stability after storage: physically unstable
[1]; solid/25° C./60% RH/open/1 week, listed as amorphous 2 eq. mesylate salt
  physical and chemical stability (in words): transformed from amorphous to a low crystallinity and showed a certain hygroscopicity (agglomeration)
[1]; solid/60° C./closed container/1 week, listed as amorphous 2 eq. mesylate salt
  physical and chemical stability (in words): a certain hygroscopicity (partial agglomeration)
[2]; Test ES4: FaSSIF-V1 (pH 6.5)
  pH measured at 2 h: (6.2)

## C=CC(=O)Nc1cc(Nc2ncnc(-c3cn(C)c4ccccc34)n2)c(OC)cc1N(C)CCN(C)C [Example 22]
Dynamic solubility test; FaSSIF, 0.5 h, listed as crystaline form II-A of mesylate salt
  dynamic solubility: 6600 µg/mL
Dynamic solubility test; FaSSIF, 1 h, listed as crystaline form II-A of mesylate salt
  dynamic solubility: 6200 µg/mL
Dynamic solubility test; FaSSIF, 2 h, listed as crystaline form II-A of mesylate salt
  dynamic solubility: 7000 µg/mL
Dynamic solubility test; FaSSIF, 4 h, listed as crystaline form II-A of mesylate salt
  dynamic solubility: 6900 µg/mL
Dynamic solubility test; FaSSIF, 24 h, listed as crystaline form II-A of mesylate salt
  dynamic solubility: 9900 µg/mL
Dynamic solubility test; SGF, 0.5 h, listed as crystaline form II-A of mesylate salt
  dynamic solubility: >10000 µg/mL
Dynamic solubility test; SGF, 1 h, listed as crystaline form II-A of mesylate salt
  dynamic solubility: >10000 µg/mL
Dynamic solubility test; SGF, 2 h, listed as crystaline form II-A of mesylate salt
  dynamic solubility: >10000 µg/mL
Dynamic solubility test; SGF, 4 h, listed as crystaline form II-A of mesylate salt
  dynamic solubility: >10000 µg/mL
Dynamic solubility test; SGF, 24 h, listed as crystaline form II-A of mesylate salt
  dynamic solubility: >10000 µg/mL
Dynamic solubility test; water, SGF, FaSSIF and FeSSIF, thermodynamic from solid, water, SGF, FaSSIF and FeSSIF, all time points, read-out: dynamic solubility in water, SGF, FaSSIF and FeSSIF (conclusion)
  solubility: > 4000 µg/mL

## C=CC(=O)Nc1cc(Nc2ncnc(-c3cn(C)c4ccccc34)n2)c(OC)cc1N(C)CCN(C)C [Example 10]
[1]; [3]
  Color: no color change
  Morphology (XRPD crystallinity): no crystal form
[1]; [4]
  Color: no color change
  Morphology (XRPD crystallinity): no crystal form
[1]; listed as 1 eq. hydrobromide salt
  chemical and physical stability after storage: chemically and physically stable
[1]; listed as crystalline 1 eq. hydrobromide salt
  chemical and physical stability after storage: chemically and physically stable
[1]; solid/25° C./60% RH/open/1 week, listed as crystalline 1 eq. hydrobromide salt
  physical and chemical stability (in words): good physical and chemical stability
[1]; solid/60° C./closed container/1 week, listed as crystalline 1 eq. hydrobromide salt
  physical and chemical stability (in words): good physical and chemical stability
[2]; Test ES4: FaSSIF-V1 (pH 6.5)
  XRPD measured at 2 h (solid fraction): hydrobromide
  pH measured at 2 h: (6.4)
[2]; Test ES5: SGF (pH 2.0)
  Solubility measured at 2 h: >2 mg/ml mg/mL

## C=CC(=O)Nc1cc(Nc2ncnc(-c3cn(C)c4ccccc34)n2)c(OC)cc1N(C)CCN(C)C [Example 9]
[1]; [3]
  Color: slight color change
  Morphology (XRPD crystallinity): amorphous (FIG. 101),
  Morphology (agglomeration, appearance): agglomeration (FIG. 102)
[1]; [4]
  Color: no color change
  Morphology (XRPD crystallinity): low crystallinity
[1]; listed as 1 eq. maleate salt
  chemical and physical stability after storage: chemically unstable; also recorded: physically unstable
[1]; listed as amorphous 1 eq. maleate salt
  chemical and physical stability after storage: chemically unstable; also recorded: physically unstable
[1]; solid/25° C./60% RH/open/1 week, listed as amorphous 1 eq. maleate salt
  physical and chemical stability (in words): slight color change and showed a certain hygroscopicity (agglomeration)
[1]; solid/60° C./closed container/1 week, listed as amorphous 1 eq. maleate salt
  physical and chemical stability (in words): transformed from amorphous to a low crystallinity
[2]; Test ES4: FaSSIF-V1 (pH 6.5)
  pH measured at 2 h: (6.1)
  Solubility measured at 2 h: >2 mg/mL

## C=CC(=O)Nc1cc(Nc2ncnc(-c3cn(C)c4ccccc34)n2)c(OC)cc1N(C)CCN(C)C [Example 23]
Dynamic solubility test; FaSSIF, 0.5 h, listed as crystaline form III-A of hydrochloride salt
  dynamic solubility: 5300 µg/mL
Dynamic solubility test; FaSSIF, 1 h, listed as crystaline form III-A of hydrochloride salt
  dynamic solubility: 5200 µg/mL
Dynamic solubility test; FaSSIF, 2 h, listed as crystaline form III-A of hydrochloride salt
  dynamic solubility: 5000 µg/mL
Dynamic solubility test; FaSSIF, 4 h, listed as crystaline form III-A of hydrochloride salt
  dynamic solubility: 5000 µg/mL
Dynamic solubility test; FaSSIF, 24 h, listed as crystaline form III-A of hydrochloride salt
  dynamic solubility: 8200 µg/mL
Dynamic solubility test; SGF, 0.5 h, listed as crystaline form III-A of hydrochloride salt
  dynamic solubility: >10000 µg/mL
Dynamic solubility test; SGF, 1 h, listed as crystaline form III-A of hydrochloride salt
  dynamic solubility: >10000 µg/mL
Dynamic solubility test; SGF, 2 h, listed as crystaline form III-A of hydrochloride salt
  dynamic solubility: >10000 µg/mL
Dynamic solubility test; SGF, 4 h, listed as crystaline form III-A of hydrochloride salt
  dynamic solubility: >10000 µg/mL
Dynamic solubility test; SGF, 24 h, listed as crystaline form III-A of hydrochloride salt
  dynamic solubility: >10000 µg/mL

## C=CC(=O)Nc1cc(Nc2ncnc(-c3cn(C)c4ccccc34)n2)c(OC)cc1N(C)CCN(C)C [Example 24]
Dynamic solubility test; FaSSIF, 0.5 h, listed as crystaline form IV-C of maleate salt
  dynamic solubility: 6100 µg/mL
Dynamic solubility test; FaSSIF, 1 h, listed as crystaline form IV-C of maleate salt
  dynamic solubility: 6200 µg/mL
Dynamic solubility test; SGF, 0.5 h, listed as crystaline form IV-C of maleate salt
  dynamic solubility: >10000 µg/mL
Dynamic solubility test; SGF, 1 h, listed as crystaline form IV-C of maleate salt
  dynamic solubility: >10000 µg/mL
Dynamic solubility test; SGF, 2 h, listed as crystaline form IV-C of maleate salt
  dynamic solubility: >10000 µg/mL
Dynamic solubility test; SGF, 4 h, listed as crystaline form IV-C of maleate salt
  dynamic solubility: >10000 µg/mL
Dynamic solubility test; SGF, 24 h, listed as crystaline form IV-C of maleate salt
  dynamic solubility: >10000 µg/mL
